Measurements published in patent US11285140B2, “Piperidin-4-yl azetidine derivatives as JAK1 inhibitors” (Incyte Corporation, priority 2010, dated 2022).

How the values were obtained:
Format in all cases: biochemical
[1] = target: human Jak2 (a.a. 828-1132) (Homo sapiens (Human), UniProt O60674); assay: In vitro JAK kinase assay (HTRF, phosphorylation of biotinylated peptide), JAK2; conditions: measured at 1 mM ATP
Method: (§1) Compounds herein were tested for inhibitory activity of JAK targets according to the following in vitro assay described in Park et al., Analytical Biochemistry 1999, 269, 94-104. The catalytic domains of human JAK1 (a.a. 837-1142), Jak2 (a.a. 828-1132) and Jak3 (a.a. 781-1124) with an N-terminal His tag were expressed using baculovirus in insect cells and purified. The catalytic activity of JAK1, JAK2 or JAK3 was assayed by measuring the phosphorylation of a biotinylated peptide. The phosphorylated peptide was detected by homogenous time resolved fluorescence (HTRF). […] Reactions were carried out at room temperature for 1 hr and then stopped with 20 μL 45 mM EDTA, 300 nM SA-APC, 6 nM Eu-Py20 in assay buffer (Perkin Elmer, Boston, Mass.). Binding to the Europium labeled antibody took place for 40 minutes and HTRF signal was measured on a Fusion plate reader (Perkin Elmer, Boston, Mass.).

[2] = target: human JAK1 (a.a. 837-1142) (Homo sapiens, UniProt P23458); assay: In vitro JAK kinase assay (HTRF, phosphorylation of biotinylated peptide), JAK1; conditions: measured at 1 mM ATP
Method: as §1

[3] = target: human JAK1 (a.a. 837-1142); assay: as above; conditions: measured at 1 mM ATP; JAK2 IC50 / JAK1 IC50
Method: as §1

human Jak2 (a.a. 828-1132), sequence (O60674 828-1132): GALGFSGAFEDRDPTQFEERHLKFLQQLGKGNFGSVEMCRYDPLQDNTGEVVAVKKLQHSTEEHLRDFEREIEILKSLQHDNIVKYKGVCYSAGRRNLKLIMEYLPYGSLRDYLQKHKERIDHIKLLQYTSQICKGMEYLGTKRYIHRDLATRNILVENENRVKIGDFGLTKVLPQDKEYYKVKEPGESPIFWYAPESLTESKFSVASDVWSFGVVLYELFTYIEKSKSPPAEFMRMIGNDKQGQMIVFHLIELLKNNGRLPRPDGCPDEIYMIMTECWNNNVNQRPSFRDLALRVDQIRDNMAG

Molecule	IC50 [1] [nM]	IC50 [2] [nM]	IC50 Ratio JAK2/JAK1 [3]
4-{3-(cyanomethyl)-3-[3-(7H-pyrrolo[2,3- d]pyrimidin-4-yl)-1H-pyrrol-1- yl]azetidin-1-yl}-N-[4- (trifluoromethyl)pyridin-3-yl]piperidine- 1-carboxamide [Example 165]	50 to 100	5 to 20	10.4
4-{3-(cyanomethyl)-3-[4-(7H-pyrrolo[2,3- d]pyrimidin-4-yl)-1H-pyrazol-1- yl]azetidin-1-yl}-N-(2,5-difluorophenyl) piperidine-1-carboxamide [Example 174]	≤ 10	≤ 5	7.1
4-{3-(cyanomethyl)-3-[4-(7H-pyrrolo[2,3- d]pyrimidin-4-yl)-1H-pyrazol-1- yl]azetidin-1-yl}-N-(2-methylphenyl) piperidine-1-carboxamide [Example 185]	10 to 50	≤ 5	9.5
4-{3-(cyanomethyl)-3-[4-(7H-pyrrolo[2,3- d]pyrimidin-4-yl)-1H-pyrazol-1- yl]azetidin-1-yl}-N-(3,5-difluorophenyl) piperidine-1-carboxamide [Example 175]	≤ 10	≤ 5	3.6
N#CCC1(n2cc(-c3ncnc4[nH]ccc34)cn2)CN(C2CCN(C(=O)C3Cc4ccccc4C3)CC2)C1 [Example 99, {1-[1-(2,3-dihydro-1H-inden-2-ylcarbonyl)piperidin-4-yl]-3-[4-(7H-pyrrolo[2,3-d]pyrimidin-4-yl)-1H-pyrazol-1-yl]azetidin-3-yl}acetonitrile]	10 to 50	5 to 20	5.6
N#CCC1(n2cc(-c3ncnc4[nH]ccc34)cn2)CN(C2CCN(Cc3ccc(F)cc3F)CC2)C1 [Example 217, {1-[1-(2,4-difluorobenzyl)piperidin-4-yl]-3-[4-(7H-pyrrolo[2,3-d]pyrimidin-4-yl)-1H-pyrazol-1-yl]azetidin-3-yl}acetonitrile]	10 to 50	5 to 20	5.8
CC(C)(C)C(=O)Nc1cc(CN2CCC(N3CC(CC#N)(n4cc(-c5ncnc6[nH]ccc56)cn4)C3)CC2)ccn1 [Example 235, N-{4-[(4-{3-(cyanomethyl)-3-[4-(7H-pyrrolo[2,3-d]pyrimidin-4-yl)-1H-pyrazol-1-yl]azetidin-1-yl}piperidin-1-yl)methyl]pyridin-2-yl}-2,2-dimethylpropanamide]	10 to 50	5 to 20	2.5
